In PMC8065335, “An integrative drug repositioning framework discovered a potential therapeutic agent targeting COVID-19” (Signal Transduction and Targeted Therapy, 2021):
Read-outs that look alike come from different tables or passages of the source.

Columns and labels:
SARS-CoV-2 [1] = test: in vitro anti-SARS-CoV-2 virus infection assay in Vero E6 cells, viral yield in supernatant by qRT-PCR; assay type: cell-based
SARS-CoV-2 [2] = test: time-of-addition assay (full-time, entry, post-entry) in Vero E6 cells; assay type: cell-based; conditions: Severe acute respiratory syndrome coronavirus 2, Vero C1008, 14 h
[3] = set-up: method as in https://www.ema.europa.eu/en/medicines/human/EPAR/rubraca; conditions: ref https://www.ema.europa.eu/en/medicines/human/EPAR/rubraca; cited from earlier work
[4] = biological target: nucleocapsid (N) protein of SARS-CoV-2 (SARS-CoV-2-N) (Severe acute respiratory syndrome coronavirus 2, UniProt P0DTC9); assay type: binding; conditions: for Kd: read-out: dissociation constant (KD)
SARS-CoV-2 [5] = test: inhibitor combination assay in Vero E6 cells; assay type: cell-based
Method: The cytotoxicity of the tested drugs on Vero E6 cells was determined by the CCK8 assays (Beyotime, China). At 48 h post addition of the tested drugs, 20 μL CCK8 was added to each well and incubated at 37 °C for 1 h. Then optical density was measured at 450 nm. The 50% cytotoxic concentration (CC50) values were calculated using GraphPad Prism 5 (GraphPad Software, USA). Vero E6 cells were seeded into 96-well plates with a density of 5 × 10^4 cells/well for incubation in DMEM medium supplemented with 10% FBS for 16 h in an incubator with 5% CO2 at 37 °C, for cells to reach 80% confluent. Then, cell culture medium of each well was removed, and PBS was used to wash the cells once, before evaluating the antiviral efficacy of the tested drugs. Four duplicated wells were made for each dose of drugs, and the cells were pretreated with different doses of antiviral drugs diluted by the cell maintenance solution (50 μL per well) for 1 h. For the virus control and cell control wells, cell medium containing DMSO or only medium of 50 μL per well was added. Next, pretreated or untreated cells in each well were infected with the virus with a multiplicity of infection (MOI) of 0.05 for 2 h. […] Then culture supernatant per well was harvested and inactivated at 56 °C for 30 min to further extract and quantify viral RNA. […]

IL-6 = test: LPS-induced IL-6 production in PBMCs (ELISA); assay type: cell-based, human
Method: (§1) Peripheral blood mononuclear cells (Allcells) were cultured at 37 °C at concentration 5% CO2 atmospheric on a 96-well plate in RPMI1640 cell growth medium (Gibico, Cat. 11875-093). For stimulation, PBMC cells were incubated with 1 μg/mL LPS (Sigma, Cat. L2880-25MG). To test whether CVL218 and olaparib can inhibit the production of IL-6, IL-10, IFN-γ, TNF-α, 1 μM and 3 μM concentrations of CVL218 or olaparib were added to cell culture medium for 6 and 24 h, respectively. The concentration of each cytokine was determined by ELISA using a commercial kit (BioLegend, USA).

IL-10 = test: LPS-induced IL-10 production in PBMCs (ELISA); assay type: cell-based, human; conditions: for LPS-induced expression of IL-10: 3 μM
Method: as §1

IFN-γ = test: LPS-induced IFN-γ production in PBMCs (ELISA); assay type: cell-based, human; conditions: both 3 μM and 1 μM; 6 h and 24 h
Method: as §1

TNF-α = test: LPS-induced TNF-α production in PBMCs (ELISA); assay type: cell-based, human; conditions: both 3 μM and 1 μM; 6 h and 24 h
Method: as §1

SARS-CoV-2 [6] = test: indirect immunofluorescence / RT-PCR of virus nucleoprotein expression in infected Vero E6 cells; assay type: cell-based
[7] = biodistribution (tissue distribution) study in rats; assay type: in vivo, Sprague-Dawley rats; conditions: 20 mg/kg oral, 180 min time point
[8] = four-week toxicity and toxicokinetic study in rats; assay type: in vivo, Sprague-Dawley rats; conditions: for AUC0−24: dose not given
Method: Sprague-Dawley rats were purchased from Shanghai Laboratory Animal Center, China. The animals were grouped and housed in wire cages with no more than six per cage, under good laboratory conditions (temperature 25 ± 2 °C; relative humidity 50 ± 20%) and with dark and light cycle (12 h/12 h). Only healthy animals were used for experimental purpose. The pharmacokinetics and biodistribution study in Sprague-Dawley rats was approved by Center for Drug Safety Evaluation and Research, Shanghai Institute of Materia Medica, Chinese Academy of Sciences. A total of 144 Sprague-Dawley rats with each sex were used for toxicity study. Animals were randomly separated into four groups (18/sex/group). CVL218 was administered at doses of 20, 40, 60, and 160 mg/kg. For all the groups, 20 rats (10/sex/group) were randomly selected and euthanized at day 28, and their sections of various tissues and organs were obtained and frozen. Ten (5/sex/group) animals were euthanized after a 28-day drug free period, and their sections of tissues and organs were obtained and frozen. Six (3/sex/group) were euthanized after the blood samples were obtained. For pharmacokinetic and toxicity evaluation, clinical symptoms, mortality and the animals’ body weight were examined. Serum (0.5 mL) was collected to analyze toxicokinetics at different timepoints post drug administration. The plasma concentration-time data were analyzed using a noncompartmental method (Phoenix, version 1.3, USA) to derive the pharmacokinetic parameters.

[9] = 28-day toxicity and toxicokinetic study in cynomolgus monkeys; assay type: in vivo; conditions: for AUC0−24: dose not given
Method: Healthy male and female cynomolgus monkeys aged 3–4 years were purchased from Guangdong Landau Biotechnology, China. The animals were maintained in accordance with the Guide for the Care and Use of Laboratory Animals.
Cynomolgus monkey (5/sex/group) were selected using a computerized randomization procedure, and administered CVL218 by nasogastric feeding at dose levels of 0 (control), 5, 20, 80 mg/kg. Individual dose volumes were adjusted weekly based on body weight of monkeys. The monkeys were observed twice daily for viability/mortality and for any change in behavior, reaction to treatment or ill-health. Electrocardiograms, intraocular pressure, rectal temperature and body weight were recorded. For all the groups, […] of the animals were randomly selected and euthanized at day 28. The remaining animals were euthanized after a 28-day drug free period. Blood samples were taken before and at 0.5, 1, 2, 4, 8, and 24 h post-dose on days 1 and 28 of the treatment period. Pharmacokinetic evaluation was performed using a noncompartmental method (Phoenix, version 1.3, USA) and pharmacokinetic parameters were calculated for individual monkeys.

[10] = Phase I clinical trial, ascending dose studies; assay type: in vivo, human; conditions: doses as high as 1000 mg QD and 500 mg BID; preliminary Phase I data
Vero E6 cells = conditions: CCK8, 48 h
[11] = set-up: method as in earlier work; conditions: rats, 54 mg/kg oral; cited from earlier work
[12] = Severe acute respiratory syndrome coronavirus 2, Vero C1008, read-out: % Inhibition of SARS-CoV-2 replication
[13] = rats, oral gavage once a day for 28 days
[14] = monkeys, nasogastric, daily for 28 days

Structure (SMILES): CCOC(=O)C1=C[C@@H](OC(CC)CC)[C@H](NC(C)=O)[C@@H](N)C1 [Oseltamivir]
- inhibition at 3 µM (SARS-CoV-2 [1]; [12]): -13.7%

Structure (SMILES): CCC(CC)COC(=O)[C@H](C)N[P@](=O)(OC[C@H]1O[C@@](C#N)(c2ccc3c(N)ncnn23)[C@H](O)[C@@H]1O)Oc1ccccc1 [remdesivir]
- inhibition at 10 µM (SARS-CoV-2 [2]; read-out: % Inhibition, Entry): 5.86%
- inhibition at 10 µM (SARS-CoV-2 [2]; read-out: % Inhibition, Full-time): 92.9%
- inhibition at 10 µM (SARS-CoV-2 [2]; read-out: % Inhibition, Post-entry): 91.9%

Structure (SMILES): CNCc1ccc(-c2[nH]c3cc(F)cc4c3c2CCNC4=O)cc1 [rucaparib]
- accessibility in the lung tissue [3]: poor accessibility

Structure (SMILES): CN(C)CC(=O)Nc1ccc2[nH]c(=O)c3ccccc3c2c1.Cl [PJ-34, N-(6-oxo-5,6-dihydrophenanthridin-2-yl)-N, N-dimethylacetamide. HCl]
- fold lower binding affinity than CVL218 [4]: about 22 fold
- Kd [4]: 68.1 µM

Structure (SMILES): CNCc1ccc(-c2cc3cc(F)cc(C(N)=O)c3o2)cc1 [CVL218]
- % Inhibition of SARS-CoV-2 replication (SARS-CoV-2 [1]; 3 μM, Vero E6, MOI 0.05, qRT-PCR, preliminary test): 34.64%
- EC50 (SARS-CoV-2 [1]; Vero E6, MOI 0.05, 48 h, read-out: EC50 against SARS-CoV-2 replication): 5.19 µM
- inhibition rate against SARS-CoV-2 replication (SARS-CoV-2 [5]; CVL218 alone at 3.5 μM): 36%
- Kd ([4]; SPR, immobilized SARS-CoV-2-N): 3.1 µM
- LPS-induced production of IL-6 (IL-6; 3 μM, after both 6 h and 24 h incubation, p < 0.01): significantly repressed
- LPS-induced expression of IL-10 (IL-10; after 6 h): not downregulated
- LPS-induced expression of IL-10 (IL-10; after 24 h, p < 0.001): dramatically reduced
- LPS-induced concentration of IFN-γ (IFN-γ): significant decrease
- LPS-induced concentration of TNF-α (TNF-α): significant decrease
- cytopathic effect in the infected cells (SARS-CoV-2 [6]; 25 μM): no obvious cytopathic effect
- expression level of N gene compared to DMSO (SARS-CoV-2 [6]; RT-PCR, 5, 15, 25 μM, 48 h post infection): Lower expression level
- virus nucleoprotein (NP) expression compared to DMSO treated cells (SARS-CoV-2 [6]; immunofluorescence microscopy, 5, 15, 25 μM, dose-response): significantly lower
- lung concentration compared to that in plasma [7]: 188 fold
- AUC0−24 ([8]; female rats, day 1): 7605 ng·h/mL
- AUC0−24 ([8]; female rats, day 28): 6657 ng·h/mL
- AUC0−24 ([8]; male rats, day 1): 9102 ng·h/mL
- AUC0−24 ([8]; male rats, day 28): 10253 ng·h/mL
- body weight versus control groups ([8]; rats, 20/60/160 mg/kg oral, 28 days + 28 days recovery): no significant difference
- maximum tolerable dose (MTD) [8, 13]: 160 mg/kg
- no-observed adverse effect level (NOAEL) [8, 13]: 20 mg/kg
- signs of toxicity after 28-day treatment period ([8]; rats, repeated dose): no apparent sign of toxicity
- AUC0−24 ([9]; female monkeys, day 1): 19466 ng·h/mL
- AUC0−24 ([9]; female monkeys, day 28): 18774 ng·h/mL
- AUC0−24 ([9]; male monkeys, day 1): 16924 ng·h/mL
- AUC0−24 ([9]; male monkeys, day 28): 22912 ng·h/mL
- accumulation after consecutive 28 days of drug administration ([9]; monkeys, 5, 20 or 80 mg/kg): not apparent
- increase of exposure (AUC0−24) with dose ([9]; monkeys, 5, 20 or 80 mg/kg): approximately dose proportional
- body weight ([9]; monkeys, high-dose (80 mg/kg) group, reversed after 28-day recovery): slight decrease
- maximum tolerable dose (MTD) [9, 14]: 80 mg/kg
- no-observed adverse effect level (NOAEL) [9, 14]: 5 mg/kg
- adverse events in human [10]: no Grade II and above adverse events
- tolerability in human [10]: well tolerated
- CC50 (Vero E6 cells): 90.6 µM

Structure (SMILES): NC(=O)c1nc(F)c[nH]c1=O [favipiravir, reference compound]
- inhibition rate against SARS-CoV-2 replication (SARS-CoV-2 [5]; favipiravir alone at 30 μM): no inhibitory activity

Structure (SMILES): O=C(c1cc(Cc2n[nH]c(=O)c3ccccc23)ccc1F)N1CCN(C(=O)C2CC2)CC1 [olaparib, reference compound]
- inhibition at 3.2 µM (SARS-CoV-2 [1]; Severe acute respiratory syndrome coronavirus 2, Vero C1008, 3.2 μM, Vero E6, MOI 0.05, qRT-PCR, preliminary test, read-out: % Inhibition of SARS-CoV-2 replication): 15.3%
- dissociation constant (KD) ([4]; SPR, immobilized SARS-CoV-2-N): no binding signal
- LPS-induced stimulation of IL-6 (IL-6; both 3 μM and 1 μM): no significant inhibition
- LPS-induced stimulation of IL-10 (IL-10; both 3 μM and 1 μM): no significant inhibition
- LPS-induced concentration of IFN-γ (IFN-γ): no significant inhibition
- LPS-induced concentration of TNF-α (TNF-α): no significant inhibition

Structure (SMILES): CCOC(=O)c1c(CSc2ccccc2)n(C)c2cc(Br)c(O)c(CN(C)C)c12 [arbidol]
- inhibition at 30 µM (SARS-CoV-2 [1]; [12]): 99%
- inhibition at 3 µM (SARS-CoV-2 [1]; Severe acute respiratory syndrome coronavirus 2, Vero C1008, 3 μM, Vero E6, MOI 0.05, qRT-PCR, preliminary test, read-out: % Inhibition of SARS-CoV-2 replication): 21.8%
- tissue distribution post administration [11]: mostly distributed in stomach and plasma

Structure (SMILES): CC(=O)N[C@H]1[C@H]([C@H](O)[C@H](O)CO)OC(C(=O)O)=C[C@@H]1N=C(N)N [Zanamivir]
- inhibition at 3 µM (SARS-CoV-2 [1]; [12]): -10.4%
